Experiment [1] has as its system Trypanosoma cruzi. The experiment can be described thus: Antiparasitic activity against epimastigotes of Trypanosoma cruzi assessed as inhibition of parasite proliferation. Format: functional, organism-based.
Experiment [2] concerns Trypanosoma cruzi. Put plainly: Antiparasitic activity against epimastigotes of Trypanosoma cruzi assessed as inhibition of parasite proliferation at 1 to 10 ug/ml. Format: functional, organism-based.
The mark [3] stands for this setting: Trypanosoma cruzi, read-out: IC50.

Structures are written as SMILES. ≈ marks a conversion by molar mass, not a printed value. Calls of active or inactive are those of the source. The calls are words filed in the database; no cut-off is given here.

On to `O=C(Cn1ccnc1[N+](=O)[O-])NCc1ccccc1` [BENZNIDAZOLE], for which the IC50 (usually the concentration that gives 50% inhibition) in the experiment with Trypanosoma cruzi [1] (setting [3]) was determined as 2.5 µg/mL (≈ 9.61 µM).

Regarding `COC(=O)CC[C@@H]1[C@@]2(C[C@@H](c3ccoc3)OC2=O)[C@H](C)CC[C@@]12OC2(C)C`, in the experiment on Trypanosoma cruzi [1], the IC50 entry is on record as “Not Active”.

As for `C=C(C)[C@]12CC[C@@H](C)[C@]3(C[C@@H](c4ccoc4)OC3=O)[C@H]1CCC(=O)O2`, in the experiment on Trypanosoma cruzi [1] (setting [3]), the half-maximal inhibitory concentration (IC50) was determined as 5 µg/mL (≈ 14.5 µM).

Take `CC(C)=C1CC[C@@H](C)[C@]2(C[C@@H](c3ccoc3)OC2=O)[C@H]1CCc1cc(O)ccc1O`: the half-maximal inhibitory concentration (IC50) in the experiment with Trypanosoma cruzi [1] (setting [3]) stood at 7 µg/mL (≈ 17.1 µM).

Turning to `CC(C)=C1CC[C@@H](C)[C@]2(C[C@@H](c3ccoc3)OC2=O)[C@H]1CCC(=O)O`, the 50% inhibitory concentration (IC50) with Trypanosoma cruzi [1] (setting [3]) was 2 µg/mL (≈ 5.77 µM). Further, in the experiment with Trypanosoma cruzi [2], the inhibition entry was “Active”.

For the compound `CC(C)=C1CC[C@@H](C)[C@]2(C[C@@H](c3ccoc3)OC2=O)[C@H]1CCC(=O)OC(C)(C)C`, in the experiment on Trypanosoma cruzi [1], the IC50 entry is “Not Active”.

For the compound `CC(C)=C1CC[C@@H](C)[C@]2(C[C@@H](c3ccoc3)OC2=O)[C@H]1CCN=C=O`, in the experiment with Trypanosoma cruzi [1], the half-inhibitory concentration (IC50) entry is “Not Active”.

`CC(C)=C1CC[C@@H](C)[C@]2(C[C@@H](c3ccoc3)OC2=O)[C@H]1CCC1=CC(=O)C=CC1=O`: the IC50 with Trypanosoma cruzi [1] (setting [3]) was 2 µg/mL (≈ 4.9 µM).

Consider `CC(C)=C1CC[C@@H](C)[C@]2(C[C@@H](c3ccoc3)OC2=O)[C@H]1CCNC(=O)NCC[C@H]1C(=C(C)C)CC[C@@H](C)[C@]12C[C@@H](c1ccoc1)OC2=O`, for which the half-inhibitory concentration (IC50) in the experiment on Trypanosoma cruzi [1] (setting [3]) turned out to be 5 µg/mL (≈ 7.57 µM).

As for `CC(C)=C1CC[C@@H](C)[C@]2(C[C@@H](c3ccoc3)OC2=O)[C@H]1CCNC(=O)OC(C)(C)C`, the concentration for half-maximal inhibition (IC50) in the experiment on Trypanosoma cruzi [1] (setting [3]) is 2 µg/mL (≈ 4.79 µM).

On to `CC(C)=C1CC[C@@H](C)[C@]2(C[C@@H](c3ccoc3)OC2=O)[C@H]1CCNC(=O)N=[N+]=[N-]`, for which, in the experiment with Trypanosoma cruzi [1] (setting [3]), the IC50 amounted to 4 µg/mL (≈ 10.4 µM).

(Values after ChEMBL document CHEMBL2417438, “Preparation and antitrypanosomal activity of secochiliolide acid derivatives” (Bioorg Med Chem Lett, 2013).)
